# Experimental data from patent publication US20110071197A1, “BIS-ARYL COMPOUNDS FOR USE AS MEDICAMENTS” (priority 2008, published 2011).
# Target: T1, Recombinant human LTC4 synthase (Homo sapiens, UniProt Q16873)
# T1 construct: made in house; host or cells: Pichia pastoris
# T1 sequence (Q16873 1-150): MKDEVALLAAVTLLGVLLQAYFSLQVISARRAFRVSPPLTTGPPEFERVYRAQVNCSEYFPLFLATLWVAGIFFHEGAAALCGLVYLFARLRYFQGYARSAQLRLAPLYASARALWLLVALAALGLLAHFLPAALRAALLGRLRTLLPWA
# Assay: LTC4 synthase in vitro assay (HTRF detection of LTC4)
# Format: biochemical
# Details: compound concentration 3 μM; HTRF method
# Outline: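 Pichia-expressed recombinant human LTC4 synthase at 0.5 μg/ml total protein in PBS pH 7.4 with 5 mM GSH, preincubated 10 min at RT with inhibitor (10 μM final). LTA4 (2.5 μM final) was then added for 5 min at RT. LTC4 formed was read by HTRF.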
row,Compound,% inh.
1,"O=C(Nc1ccc(Oc2ccc(NC(=O)c3ccc(Cl)c(Cl)c3)c(C(=O)O)c2)cc1C(=O)O)c1ccc(F)c(F)c1 [1:8, 5-[3-carboxy-4-(3,4-difluorobenz-amido)phenyloxy]-2-(3,4-dichloro-benzamido)benzoic acid]",99 (3 μM) %

# Same assay, conditions: total concentration of title compound in the assay 10 μM; HTRF method
Compound,inhibition at 10 µM,% inh.
"CCCCc1ccc(C(=O)Nc2ccc(Oc3ccc(NC(=O)c4cc(OC)cc(OC)c4)cc3)cc2C(=O)O)cc1 [8:9, 2-(4-butylbenzoylamino)-5-[4-(3,5-dimethoxybenzoylamino)-phenoxy]benzoic acid]",88%,
"CCCCOc1ccc(S(=O)(=O)Nc2ccc(Oc3cccc(NCc4cccc(Cl)c4F)c3)cc2C(=O)O)cc1 [23:4, 2-(4-Butoxybenzenesulfonylamino)-5-[3-(3-chloro-2-fluorobenzylamino)-phenoxy]benzoic acid]",99%,
"CCCCc1ccc(C(=O)Nc2ccc(Oc3ccc(NS(=O)(=O)c4ccc5c(c4)CNCC5)c(CC(=O)O)c3)cc2)cc1 [17:6, [5-[4-(4-butyl-benzoylamino)-phenoxy]-2-(1,2,3,4-tetrahydro-isoquinoline-7-sulfonylamino)-phenyl]-acetic acid]",23%,
"O=C(O)Cc1cc(Oc2ccc(NC(=O)c3ccc(C(F)(F)F)cc3F)c(C(=O)O)c2)ccc1NC(=O)c1cc(F)c(Cl)cc1F [6:5, 5-[3-carboxy-methyl-4-(4-chloro-2,5-difluoro-benzoylamino)-phenoxy]-2-(2-fluoro-4-trifluoro-methylbenzoylamino)-benzoic acid]",,96%
"O=C(Nc1ccc(Oc2ccc(NC(=O)c3cc(Cl)ccc3O)cc2)cc1C(=O)O)c1ccc(C(F)(F)F)cc1 [8:3, 5-[4-(5-chloro-2-hydroxybenzoylamino)phenoxy]-2-(4-trifluoro-methylbenzoylamino)-benzoic acid]",,96%
"O=C(Nc1ccc([S+]([O-])c2ccc(NC(=O)c3ccc(C(F)(F)F)cc3)c(C(=O)O)c2)cc1C(=O)O)c1ccc(C(F)(F)F)cc1 [15:3, 2-(4-(trifluoromethyl)benz-amido)-5-((4-(4-(trifluoromethyl)benzamido)-3-carboxy-phenyl)sulfinyl)benzoic acid]",,99%
"O=C(Nc1cccc(Oc2ccc(NC(=O)c3ccc(C(F)(F)F)cc3F)c(C(=O)O)c2)c1)c1cccc(C(F)(F)F)c1 [10:5, 2-(2-fluoro-4-trifluoromethylbenzoyl-amino)-5-[3-(3-trifluoro-methylbenzoylamino)phenoxy]benzoic acid]",,98%
"CC(C)(C)c1ccc(C(=O)Nc2ccc(Oc3ccc(NC(=O)c4ccccn4)c(C(=O)O)c3)cc2)cc1 [8:18, 5-[4-(4-tert-Butylbenzoyl-amino)phenoxy]-2-[(pyridine-2-carbonyl)-amino]benzoic acid]",99%,
"O=C(Nc1ccc(Oc2ccc([N+](=O)[O-])c(C(=O)O)c2)cc1C(=O)O)c1ccccc1 [3:1, 2-benzamido-5-(3-carboxy-4-nitrophenoxy)benzoic acid]",65%,
"O=C(Nc1ccc(Oc2ccc(NC(=O)c3ccc([N+](=O)[O-])cc3)c(C(=O)O)c2)cc1C(=O)O)c1ccccc1 [5:2, 5-[3-carboxy-4-(4-nitrobenzamido)-phenyloxy]-2-benzamidobenzoic acid]",99%,
"CC(C)Oc1ccc(C(=O)Nc2ccc(Oc3ccc(S(=O)(=O)Nc4ccc(F)c(F)c4)cc3)cc2C(=O)O)cc1 [25:6, 5-[4-(3,4-Difluoro-phenylsulfamoyl)-phenoxy]-2-(4-isopropoxybenzoyl-amino)benzoic acid]",100%,
"O=C(Nc1ccc(Oc2cccc(Oc3ccc(F)c(F)c3)c2)cc1C(=O)O)c1ccc(OC2CCCC2)cc1 [Example 28:2, 2-(4-Cyclopentyloxybenzoylamino)-5-[3-(3,4-difluorophenoxy)phenoxy]benzoic acid]",94%,
"O=C(Cc1cccc(Oc2ccc(Nc3ccc(Cl)cc3)c(C(=O)O)c2)c1)NS(=O)(=O)c1ccc(F)c(F)c1 [26:2, 2-(4-Chlorophenylamino)-5-{3-[2-(3,4-difluorobenzenesulfonylamino)-2-oxoethyl]phenoxy}benzoic acid]",93%,
"O=C(Nc1ccc(Oc2ccc([N+](=O)[O-])cc2)cc1C(=O)O)c1ccc(Cl)cc1Cl [8:2, 2-(2,4-dichlorobenzamido)-5-(4-nitrophenoxy)benzoic acid]",93%,
"CCCCc1ccc(C(=O)Nc2ccc(Oc3ccc(NC(=O)c4ccc(C(F)(F)F)cc4F)cc3)cc2CC(=O)O)cc1 [17:4, {2-(4-butyl-benzoylamino)-5-[4-(2-fluoro-4-trifluoromethyl-benzoylamino)-phenoxy]-phenyl}-acetic acid]",79%,
"CCCCOc1ccc(S(=O)(=O)Nc2ccc(Oc3cccc(NCc4cccc(OC)c4OC)c3)cc2C(=O)O)cc1 [23:2, 2-(4-Butoxybenzenesulfonylamino)-5-[3-(2,3-dimethoxybenzylamino)-phenoxy]benzoic acid]",99%,
"CCCCN(c1ccc(F)c(F)c1)c1ccc(Oc2ccc(Nc3ccc(F)c(F)c3)c(C(=O)O)c2)cc1C(=O)O [Example 24:3, 2-[butyl-(3,4-difluorophenyl)amino]-5-[3-carboxy-4-(3,4-difluorophenyl-amino)phenoxy]benzoic acid]",97%,
2-[(2-Chloro-pyridine-3-carbonyl)-amino]-5-{4-[(4-methoxy-benzene-sulfonyl)methylamino]-phenoxy}benzoic acid [11:20],,76%
"O=C(O)c1cc(Nc2ccc(F)c(F)c2)cc(Oc2ccc(Nc3ccc(Cl)cc3)cc2)c1 [18:2, 3-[4-(4-Chloro-phenylamino)-phenoxy]-5-(3,4-difluoro-phenylamino)-benzoic acid]",97%,
"CN(C)c1ccc(C(=O)Nc2ccc(Oc3ccc(NC(=O)c4ccc(C(F)(F)F)cc4)c(C(=O)O)c3)cc2)cc1.Cl [8:6, 5-[4-(4-dimethylaminobenzoyl-amino)phenoxy]-2-(4-trifluoro-methylbenzoylamino)benzoic acid hydrochloride]",,97%
"CCCCOc1ccc(S(=O)(=O)Nc2ccc(Oc3ccc(NC(=O)c4ccccc4)cc3)cc2C(=O)O)cc1 [21:4, 5-(4-benzoylamino-phenoxy)-2-(4-butoxy-benzenesulfonylamino)-benzoic acid]",100%,
"N#Cc1ccc(C(=O)Nc2ccc(Oc3ccc(NC(=O)c4cccc(Cl)c4)c(C(=O)O)c3)cc2C(=O)O)cc1 [2:9, 5-[3-carboxy-4-(4-cyanobenzamido)-phenyloxy]-2-(3-chlorobenzamido)benzoic acid]",99%,
"CC(C)Oc1ccc(C(=O)Nc2ccc(Oc3ccc(NC(=O)c4ccc(Cl)cc4Cl)c(CC(=O)O)c3)cc2C(=O)O)cc1 [6:6, 5-[3-carboxymethyl-4-(2,4-dichloro-benzoyl-amino)phenoxy]-2-(4-isopropoxybenzoyl-amino)benzoic acid]",98%,
"CCCCOc1ccc(S(=O)(=O)Nc2ccc(Oc3ccc(NC(=O)c4ccc(OC(C)C)cc4)c(C(=O)O)c3)cc2/C=C/C(=O)O)cc1 [Example 22:4, 5-[4-(4-butoxybenzenesulfonyl-amino)-3-((E)-2-carboxyvinyl)-phenoxy]-2-(4-isopropoxy-benzoylamino)benzoic acid]",100%,
"O=C(O)c1cc(Oc2ccc(Nc3ccc([N+](=O)[O-])cc3)c(C(=O)O)c2)ccc1Nc1ccc(F)cc1 [1:6, 5-[3-carboxy-4-(4-nitrophenyl-amino)phenyloxy]-2-(4-fluoro-phenylamino)benzene-carboxylic acid]",100%,
